# Test results: article PMC9330353 (Journal of Fungi, 2022)
# “Also recorded” adds a separate entry of the source.
# Legend:
# Pdr5p [1] = molecular target: T1, Pdr5p (Saccharomyces cerevisiae, UniProt P33302); conditions: at 100 μg/mL; cited from earlier work
# T1 construct: AD/124567 cells in the exponential growth phase were harvested by centrifugation; endogenous in cells; host or cells: S. cerevisiae strain AD/124567 (PDR1-3; other MDR ABC transporter genes deleted)
# strain AD/124567 [2] = test: Disk diffusion chemosensitization assay; assay type: cell-based, Saccharomyces cerevisiae; conditions: strain AD/124567, medium with 150 µg/mL fluconazole, 50 μg compound per disk, 48 h
# Experimental: To evaluate the ability of the compounds in reversing the MDR phenotype of strain AD/124567, a chemosensitization assay was performed, with slight modifications. Briefly, YPD medium containing 150 µg/mL fluconazole was prepared with 1.5% agarose, and a cell suspension from AD/124567 was incorporated into molten medium (45 °C), reaching a final concentration of 2.4 × 10^6 yeasts/mL. Subsequently, 50 μg of each compound was applied to 6-milimeter Whatman 3MM® blotting paper disks (Sigma-Aldrich®, St. Louis, MO, USA), dried at 30 °C for 30 min, and placed on the solidified medium surface. The plates were incubated at 30 °C for 48 h, photographed, and the inhibition zones were measured. A fluconazole-free medium was also used to evaluate the effects of the compounds alone on yeast growth.
# strain AD/124567 [3] = test: Checkerboard assay with fluconazole, strain AD/124567; assay type: cell-based, Saccharomyces cerevisiae
# Experimental: (§1) Culture growth was measured using a microplate reader at 600 nm (Fluostar Optima, BMG Labtech, Offenburg, Germany). Growth inhibition was calculated as described in Section 2.3.
# (§2) FICI ≤ 0.5 points to a synergic interaction, whereas 0.5 < FICI < 4.0 and FICI > 4 indicate indifferent and antagonistic interactions, respectively.
# [4] = system: fluconazole-resistant Candida albicans strain 95-142; test: Checkerboard assay with fluconazole, strain 95-142; assay type: cell-based; conditions: read-out: Fluconazole MIC a (alone)
# Text: (§3) In this study, two S. cerevisiae mutant strains were used. Strain AD/124567 (genotype: MATα, PDR1-3, ura3, his1, Δyor1::hisG, Δsnq2::hisG, Δpdr10::hisG, Δpdr11::hisG, Δycf1::hisG, Δpdr3::hisG) overexpressed Pdr5p, but the genes of all other ABC transporters related to the MDR phenotype (Yor1p, Snq2p, Pdr10p, Pdr11p, and Ycf1p) were deleted. A second strain, AD/1234567, had all MDR related genes deleted, including PDR5 (genotype: MATα, PDR1-3, ura3, his1, Δyor1::hisG, Δsnq2::hisG, Δpdr5::hisG, Δpdr10::hisG, Δpdr11::hisG, Δycf1::hisG, Δpdr3::hisG). Therefore, this strain was highly sensitive to fluconazole. One fluconazole-resistant Candida albicans strain was also used in this study, namely, 95-142. This strain was isolated from the throat of a patient and identified by CHROMagar^TM and PCR. The isolate overexpressed CaCdr1p and CaCdr2p (the most important MDR transporters of C. albicans), and was kindly provided by Dr. Theodore White (University of Missouri, Kansas City, MO, USA).
# as §1, §2
# Pdr5p [5] = molecular target: T1, Pdr5p; conditions: at 200 μM; cited from earlier work
# [6] = system: S. cerevisiae strain AD/124567 (overexpresses Pdr5p); test: Antifungal susceptibility test (microbroth dilution), strain AD/124567; assay type: cell-based, Saccharomyces cerevisiae; conditions: tested strains AD/1234567 and AD/124567, up to 100 μM
# Text: as §3
# The antifungal activity of the compounds was evaluated via a microbroth dilution method described by Niimi et al.. […] Culture growth was measured using a microplate reader at 600 nm (Fluostar Optima, BMG Labtech, Offenburg, Germany). […] Growth inhibition was calculated as follows: % Growth inhibition = (Absorbance of growth control − Absorbance of treated sample) × 100/Absorbance of growth control
# Pdr5p [7] = molecular target: T1, Pdr5p; test: Rhodamine 6G accumulation/efflux assay; assay type: cell-based; conditions: strain AD/124567 in the presence of glucose
# Experimental: Efflux assays were performed as described by Reis de Sá et al. (2017). Briefly, AD/124567 cells in the exponential growth phase were harvested by centrifugation at 5000 rpm at room temperature for 5 min, and then washed twice with phosphate-buffered saline (PBS) (0.43 g of KH2PO4; 7.2 g of NaCl; 1.85 g of Na2HPO4; pH 7.2; 990 mL of distilled water). Cells were then resuspended in 10 mL of PBS and starved for 2 h at 4 °C. Subsequently, 10^7 cells/mL were incubated for 30 min at 30 °C with 15 μM R6G. After incubation, cells were washed twice with PBS and further incubated in the presence of the compounds, DMSO, and FK-506 (a classical inhibitor of ABC transporters) for 60 min at 30 °C. […] The supernatants were transferred to the wells of a 96-well polystyrene plate, and fluorescence was measured with a plate reader (Fluostar Optima, BMG Labtech, Offenburg, Germany) at 485 nm (excitation) and 538 nm (emission). To evaluate R6G efflux, fluorescence emitted by the dye in the extracellular milieu was measured. Thus, the fluorescence was directly related to extracellular R6G concentration, and then to Pdr5p activity. […] R6G efflux was calculated as follows: (2) % efflux = Fluorescence of treated sample × 100/Fluorescence of AD/124567 with glucose […]
# T1 sequence (P33302 whole entry): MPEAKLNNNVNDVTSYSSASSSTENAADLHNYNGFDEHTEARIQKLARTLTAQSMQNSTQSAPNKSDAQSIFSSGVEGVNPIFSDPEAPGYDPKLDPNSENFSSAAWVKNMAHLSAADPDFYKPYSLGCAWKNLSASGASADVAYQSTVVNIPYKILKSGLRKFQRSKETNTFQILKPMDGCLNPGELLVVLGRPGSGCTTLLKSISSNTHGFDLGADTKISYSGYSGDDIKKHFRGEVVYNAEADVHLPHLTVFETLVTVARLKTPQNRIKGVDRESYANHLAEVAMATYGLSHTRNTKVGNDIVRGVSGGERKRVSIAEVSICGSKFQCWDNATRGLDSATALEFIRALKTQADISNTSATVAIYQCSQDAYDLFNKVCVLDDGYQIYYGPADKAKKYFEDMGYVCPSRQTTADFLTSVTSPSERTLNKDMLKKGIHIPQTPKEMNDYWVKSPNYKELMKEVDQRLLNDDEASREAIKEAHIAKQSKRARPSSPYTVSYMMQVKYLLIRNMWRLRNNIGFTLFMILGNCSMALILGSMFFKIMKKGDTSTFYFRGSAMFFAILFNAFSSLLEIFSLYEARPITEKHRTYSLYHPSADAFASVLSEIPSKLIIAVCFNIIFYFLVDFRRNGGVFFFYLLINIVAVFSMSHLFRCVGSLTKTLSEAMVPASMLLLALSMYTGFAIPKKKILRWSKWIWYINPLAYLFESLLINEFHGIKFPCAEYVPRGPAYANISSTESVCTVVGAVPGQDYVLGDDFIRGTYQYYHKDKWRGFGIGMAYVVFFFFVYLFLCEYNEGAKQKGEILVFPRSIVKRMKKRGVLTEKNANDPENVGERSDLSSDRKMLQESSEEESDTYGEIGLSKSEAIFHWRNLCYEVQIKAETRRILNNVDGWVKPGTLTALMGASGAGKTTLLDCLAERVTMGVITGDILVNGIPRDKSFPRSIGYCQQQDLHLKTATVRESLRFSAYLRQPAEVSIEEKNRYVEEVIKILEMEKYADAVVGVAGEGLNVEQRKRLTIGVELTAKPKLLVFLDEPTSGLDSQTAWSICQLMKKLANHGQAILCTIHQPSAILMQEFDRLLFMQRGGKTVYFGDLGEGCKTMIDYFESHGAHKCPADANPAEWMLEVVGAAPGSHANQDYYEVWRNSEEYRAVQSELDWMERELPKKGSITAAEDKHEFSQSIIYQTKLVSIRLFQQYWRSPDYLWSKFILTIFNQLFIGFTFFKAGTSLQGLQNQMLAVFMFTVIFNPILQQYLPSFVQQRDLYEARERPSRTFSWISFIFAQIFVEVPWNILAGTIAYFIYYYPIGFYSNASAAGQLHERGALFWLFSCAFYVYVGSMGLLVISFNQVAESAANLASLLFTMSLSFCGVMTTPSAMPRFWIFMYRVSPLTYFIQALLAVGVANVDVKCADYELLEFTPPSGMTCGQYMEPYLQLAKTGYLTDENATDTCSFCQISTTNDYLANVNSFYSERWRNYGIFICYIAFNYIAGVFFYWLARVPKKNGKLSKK
smiles,measurement,setting,value
CC1(C)CCC2=C(O1)c1ccccc1C(=O)C2=O [Beta-lapachone],Inhibition of Pdr5p activity,Pdr5p [1],79.4%
C=CC[C@@H]1/C=C(\C)C[C@H](C)C[C@H](OC)[C@H]2O[C@@](O)(C(=O)C(=O)N3CCCC[C@H]3C(=O)O[C@H](/C(C)=C/[C@@H]3CC[C@@H](O)[C@H](OC)C3)[C@H](C)[C@@H](O)CC1=O)[C@H](C)C[C@@H]2OC [FK-506],Inhibition zone,strain AD/124567 [2],18 mm
OC(Cn1cncn1)(Cn1cncn1)c1ccc(F)cc1F [Fluconazole],MIC,"strain AD/124567 [3]; Saccharomyces cerevisiae, strain AD/124567, 80% growth inhibition, read-out: Fluconazole MIC a (alone)",480 µg/mL
same,MIC,[4],62.5 µg/mL
Nc1ncc(/C=C/CNC(=O)c2cc(Br)c(Br)[nH]2)[nH]1 [Oroidin],Inhibition of R6G efflux,Pdr5p [5],60%
"C[C@H]1O[C@@H](O[C@H]2[C@@H](O)C[C@H](O[C@H]3[C@@H](O)C[C@H](O[C@H]4CC[C@@]5(C)[C@H](CC[C@@H]6[C@@H]5C[C@@H](O)[C@]5(C)[C@@H](C7=CC(=O)OC7)CC[C@]65O)C4)O[C@@H]3C)O[C@@H]2C)C[C@H](O)[C@@H]1O [digoxin, Digoxin]",Interaction with fluconazole (qualitative),"strain AD/124567 [3]; S. cerevisiae, agar diffusion assay and checkerboard titration",indifferent to interaction with fluconazole
same,Antifungal activity of the compound alone,[6],neither presented antifungal activity
same,Effect on R6G efflux / Pdr5p activity (qualitative),Pdr5p [7],unable to inhibit Pdr5p activity; also recorded: did not affect Pdr5p activity
